Among the data in PubChem BioAssay (NCI) are TGI and GI50 values, retold here.

“And” between values parts separate entries of the source, which are not always exact repeats. Equal entries are not always repeated.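 Following 48 hours of exposure in 96-well plates, responses at five concentrations were used to interpolate endpoints linearly. Abbreviation: GI50, concentration required for 50% inhibition of growth. TGI: total growth inhibition.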

One assay concerns NCI/ADR-RES ovarian. Description: NCI tumour cell line growth inhibition, 48 h.
For `Cc1ccc(/C(O)=C/C(=O)C(=O)/C=C(\O)c2ccc(C)cc2C)c(C)c1`, the TGI came out at 4.12 µM.

The compound `O=C(NCCCCCCNCc1cccc2ccccc12)Nc1cccc2ccccc12` showed a TGI of more than 100 µM.

Regarding `Cc1ccc([C@H]2CC(=O)C[C@H](c3ccc(C)cc3)C23C(=O)c2ccccc2C3=O)cc1`, the TGI was 30.2 µM.

For the compound `O=c1c2ncn(COCCCl)c2n(-c2ccccc2)c(=S)n1-c1ccccc1`, the TGI is more than 100 µM.

In the case of `COc1ccc(/C=N/N=C(\N)NO)c(O)c1`, the TGI was more than 10 µM.

Compound `CC1(CF)SCc2nc3ccccc3n21` (stereo unspecified) showed a TGI of more than 100 µM.

For `NCCSc1nc2ccccc2c(=O)n1-c1ccccc1`, the TGI is more than 100 µM.

The compound `Nc1cccc(Nc2nc3ccccc3nc2NS(=O)(=O)c2ccccc2)c1` displayed a TGI of more than 100 µM.

Compound `COC(=O)C1=CC(=O)OC1(OO)c1ccccc1` (stereo unspecified) came in with a TGI of more than 100 µM.

The compound `CN(C)Cc1cc(C(=O)/C=C/c2ccccc2Cl)cc(CN(C)C)c1O` registered a TGI of 63.6 µM.

The compound `O=C1NC(N/N=C/C(O)C(O)C(O)CO)=N/C1=C\c1ccco1` (stereo unspecified) came in with a TGI of more than 100 µM.

Take `COc1cc(CNc2ccc(SC)cc2)cc(OC)c1OC`: the TGI was 23.9 µM and > 22.6 µM.

`Nc1ccc(N=Nc2ccccc2)cc1` showed a TGI of more than 100 µM.

Compound `Cc1ccn2c(=O)cc(-c3ccccc3)nc2c1` showed a TGI of more than 100 µM.

Take `O=c1[nH]nc(Cc2ccc([N+](=O)[O-])cc2)n1CCO`: the TGI was more than 100 µM.

`c1cc2nnnn2nc1N1CCCC1` displayed a TGI of more than 100 µM.

As to `N#Cc1c(-c2ccccc2)nc(-c2ccccc2)sc1=S`, the TGI is more than 100 µM.

`CCn1nc2c3c(ncn3C(C)(C)O2)c1=O` yielded a TGI of more than 100 µM.

`CCC(C#N)NC(=O)NC(C#N)CC` (stereo unspecified) yielded a TGI of more than 100 µM.

The compound `CCc1ccc2oc(-c3cc(O)c(-c4nc5cc(CC)ccc5o4)cc3O)nc2c1` displayed a TGI of more than 100 µM.

As for `CCOC(=O)/C=C(/C(=O)OCC)n1ccc(N)nc1=O`, the TGI is more than 100 µM.

As to `CC(=O)O[C@H]1C#C/C=C\C#CC[C@@H]2C(=O)N[C@@H]12`, the TGI is more than 75.9 µM.

Take `CCCSc1ccc2[nH]c(/N=C/c3ccco3)cc2c1`: the TGI was more than 100 µM.

The compound `Cc1ccc2c(c1)[nH]c1cc(C(F)(F)F)ccc1[p+]2=O` (stereo unspecified) displayed a TGI of more than 100 µM.

Regarding `CN(O)C(=O)c1cccc(Cl)c1`, the TGI was more than 100 µM.

For `CCC1(C)N=C(c2cnccn2)NN1c1ccc(Cl)cc1` (stereo unspecified), the TGI is more than 100 µM.

`C1CNCCNCCN1`: the TGI is more than 100 µM.

As to `O=c1nc2c(c(-c3ccccc3Cl)[nH]1)COC/C2=C\c1ccccc1Cl`, the TGI is more than 100 µM.

The subject of the next assay is HOP-92 NSCLC. As to the kind of experiment: NCI tumour cell line growth inhibition, 48 h.
Consider `Cc1ccc(/C(O)=C/C(=O)C(=O)/C=C(\O)c2ccc(C)cc2C)c(C)c1`, for which the TGI amounted to 8.6 µM.

Consider `O=C(NCCCCCCNCc1cccc2ccccc12)Nc1cccc2ccccc12`, for which the TGI is more than 100 µM.

Take `Cc1ccc([C@H]2CC(=O)C[C@H](c3ccc(C)cc3)C23C(=O)c2ccccc2C3=O)cc1`: the TGI is 49.7 µM.

In turn, `O=c1c2ncn(COCCCl)c2n(-c2ccccc2)c(=S)n1-c1ccccc1` came in with a TGI of more than 100 µM.

With `COc1ccc(/C=N/N=C(\N)NO)c(O)c1`, the TGI is more than 10 µM.

Compound `CC1(CF)SCc2nc3ccccc3n21` (stereo unspecified) gave a TGI of more than 100 µM.

Take `NCCSc1nc2ccccc2c(=O)n1-c1ccccc1`: the TGI was determined as 65.5 µM.

The compound `Nc1cccc(Nc2nc3ccccc3nc2NS(=O)(=O)c2ccccc2)c1` yielded a TGI of 78 µM.

As to `COC(=O)C1=CC(=O)OC1(OO)c1ccccc1` (stereo unspecified), the TGI was more than 100 µM.

Compound `CN(C)Cc1cc(C(=O)/C=C/c2ccccc2Cl)cc(CN(C)C)c1O` displayed a TGI of 39.6 µM.

The compound `O=C1NC(N/N=C/C(O)C(O)C(O)CO)=N/C1=C\c1ccco1` (stereo unspecified) returned a TGI of more than 100 µM.

In the case of `COc1cc(CNc2ccc(SC)cc2)cc(OC)c1OC`, the GI50 is 15.2 µM and 6.16 µM; the TGI is > 96.1 µM and 47.6 µM.

On to `Nc1ccc(N=Nc2ccccc2)cc1`, for which the TGI was more than 100 µM.

The compound `Cc1ccn2c(=O)cc(-c3ccccc3)nc2c1` returned a TGI of more than 100 µM.

Turning to `O=c1[nH]nc(Cc2ccc([N+](=O)[O-])cc2)n1CCO`, the TGI was more than 100 µM.

On to `c1cc2nnnn2nc1N1CCCC1`, for which the TGI is more than 100 µM.

`N#Cc1c(-c2ccccc2)nc(-c2ccccc2)sc1=S` displayed a TGI of more than 100 µM.

`CCn1nc2c3c(ncn3C(C)(C)O2)c1=O`: the TGI was more than 100 µM.

In the case of `CCC(C#N)NC(=O)NC(C#N)CC` (stereo unspecified), the TGI was more than 100 µM.

Compound `CCc1ccc2oc(-c3cc(O)c(-c4nc5cc(CC)ccc5o4)cc3O)nc2c1` showed a TGI of more than 100 µM.

In turn, `CCOC(=O)/C=C(/C(=O)OCC)n1ccc(N)nc1=O` gave a TGI of more than 100 µM.

Turning to `CC(=O)O[C@H]1C#C/C=C\C#CC[C@@H]2C(=O)N[C@@H]12`, the TGI was determined as 98.9 µM.

On to `CCCSc1ccc2[nH]c(/N=C/c3ccco3)cc2c1`, for which the TGI is more than 100 µM.

In the case of `Cc1ccc2c(c1)[nH]c1cc(C(F)(F)F)ccc1[p+]2=O` (stereo unspecified), the TGI came out at 54.5 µM.

`CN(O)C(=O)c1cccc(Cl)c1` had a TGI of more than 100 µM.

In turn, `CCC1(C)N=C(c2cnccn2)NN1c1ccc(Cl)cc1` (stereo unspecified) gave a TGI of more than 100 µM.

For the compound `C1CNCCNCCN1`, the TGI is more than 100 µM.

`O=c1nc2c(c(-c3ccccc3Cl)[nH]1)COC/C2=C\c1ccccc1Cl`: the TGI was more than 100 µM.

The subject of the next assay is 786-0 renal. Description: NCI tumour cell line growth inhibition, 48 h.
`Cc1ccc(/C(O)=C/C(=O)C(=O)/C=C(\O)c2ccc(C)cc2C)c(C)c1` displayed a TGI of 4.28 µM.

The compound `O=C(NCCCCCCNCc1cccc2ccccc12)Nc1cccc2ccccc12` registered a TGI of more than 100 µM.

Take `Cc1ccc([C@H]2CC(=O)C[C@H](c3ccc(C)cc3)C23C(=O)c2ccccc2C3=O)cc1`: the TGI was 31.7 µM.

`O=c1c2ncn(COCCCl)c2n(-c2ccccc2)c(=S)n1-c1ccccc1` showed a TGI of more than 100 µM.

Take `COc1ccc(/C=N/N=C(\N)NO)c(O)c1`: the TGI is more than 10 µM.

`CC1(CF)SCc2nc3ccccc3n21` (stereo unspecified) displayed a TGI of more than 100 µM.

As to `NCCSc1nc2ccccc2c(=O)n1-c1ccccc1`, the TGI is more than 100 µM.

Compound `Nc1cccc(Nc2nc3ccccc3nc2NS(=O)(=O)c2ccccc2)c1` registered a TGI of more than 100 µM.

On to `COC(=O)C1=CC(=O)OC1(OO)c1ccccc1` (stereo unspecified), for which the TGI was more than 100 µM.

For `CN(C)Cc1cc(C(=O)/C=C/c2ccccc2Cl)cc(CN(C)C)c1O`, the TGI was determined as 21.4 µM.

`O=C1NC(N/N=C/C(O)C(O)C(O)CO)=N/C1=C\c1ccco1` (stereo unspecified) showed a TGI of more than 100 µM.

With `COc1cc(CNc2ccc(SC)cc2)cc(OC)c1OC`, the TGI was 77.2 µM and 65.8 µM.

For the compound `Nc1ccc(N=Nc2ccccc2)cc1`, the TGI was more than 100 µM.

Consider `Cc1ccn2c(=O)cc(-c3ccccc3)nc2c1`, for which the TGI is more than 100 µM.
